System: TFEB
Assay: TFEB nuclear translocation assay, HeLa wt cells
Format: cell-based
Settings: Homo sapiens, HeLa, 2 h, 2 hrs compound treatment, Table 1 does not say HeLa wt or TRPML1 KO
How it was run: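 HeLa wt, 2 hr compound, 37° C; 4% PFA fix; anti-TFEB (rabbit, 1:200, overnight 4° C) + Alexa 488 secondary, Hoechst. Imaged ×20, 4 fields/well. Readout: nuclear/ring Alexa 488 intensity ratio; AC50.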

`COCC1(C)CCN(c2ccccc2NS(=O)(=O)c2ccc3c(c2)OC(C)(C)O3)CC1` [Compound A-721, N-{2-[4-(methoxymethyl)-4-methylpiperidin-1-yl]phenyl}-2,2-dimethyl-2H-1,3-benzodioxole-5-sulfonamide] and `COCC1(C)CCN(c2ccccc2NS(=O)(=O)c2ccc3c(c2)OC(C)(C)C3)CC1` [Compound A-738, N-{2-[4-(methoxymethyl)-4-methylpiperidin-1-yl]phenyl}-2,2-dimethyl-2,3-dihydro-1-benzofuran-6-sulfonamide] cannot be ordered by AC50: no more than 2000 nM for the first, no more than 2000 nM for the second.

First: CN(C)S(=O)(=O)c1ccc(S(=O)(=O)Nc2ccccc2N2CCC(F)(CCO)CC2)cc1 [Compound A-722, N4-{2-[4-fluoro-4-(2-hydroxyethyl)piperidin-1-yl]phenyl}-N1,N1-dimethylbenzene-1,4-disulfonamide]
Second: COC(C)C1(C)CCN(c2ccccc2NS(=O)(=O)c2ccc(S(=O)(=O)N(C)C)cc2)CC1 (centres unmarked) [Compound A-741, N4-{2-[4-(1-methoxyethyl)-4-methylpiperidin-1-yl]phenyl}-N1,N1-dimethylbenzene-1,4-disulfonamide]
The AC50 of the first is higher: no less than 10000 nM for the first, no more than 2000 nM for the second.

`CC1(C)CC2(CCN(c3ccccc3NS(=O)(=O)c3ccc4c(c3)OC3(CCC3)O4)CC2)CO1` [Compound A-723, N-(2-{3,3-dimethyl-2-oxa-8-azaspiro[4.5]decan-8-yl}phenyl)spiro[1,3-benzodioxole-2,1′-cyclobutane]-6-sulfonamide] and `CC1(C)CC2(CCN(c3ccccc3NS(=O)(=O)c3ccc4c(c3)C(C)(C)CO4)CC2)CO1` [Compound A-742, N-(2-{3,3-dimethyl-2-oxa-8-azaspiro[4.5]decan-8-yl}phenyl)-3,3-dimethyl-2,3-dihydro-1-benzofuran-5-sulfonamide] cannot be ordered by AC50: no more than 2000 nM for the first, no more than 2000 nM for the second.

`CN(C)S(=O)(=O)c1ccc(S(=O)(=O)Nc2cccc(C#N)c2N2CCC3(CC2)COC(C)(C)C3)cc1` [Compound A-724, N4-(3-cyano-2-{3,3-dimethyl-2-oxa-8-azaspiro[4.5]decan-8-yl}phenyl)-N1,N1-dimethylbenzene-1,4-disulfonamide] and `CC(c1cccc(F)c1N1CCC2(CC1)COC(C)(C)C2)S(=O)(=O)c1ccc(S(=O)(=O)N(C)C)cc1` (centres unmarked) [Compound A-752, 4-[1-(2-{3,3-dimethyl-2-oxa-8-azaspiro[4.5]decan-8-yl}-3-fluorophenyl)ethanesulfonyl]-N,N-dimethylbenzene-1-sulfonamide] cannot be ordered by AC50: no more than 2000 nM for the first, no more than 2000 nM for the second.

First: CN(C)S(=O)(=O)c1ccc(S(=O)(=O)Nc2ccccc2N2CCC(C(C)(C)O)CC2)cc1 [Compound A-725, N4-{2-[4-(2-hydroxypropan-2-yl)piperidin-1-yl]phenyl}-N1,N1-dimethylbenzene-1,4-disulfonamide]
Second: CN(C)S(=O)(=O)c1ccc(S(=O)(=O)Nc2ccccc2N2CCC(COC(C)(F)F)CC2)cc1 [Compound A-739, N4-(2-{4-[(1,1-difluoroethoxy)methyl]piperidin-1-yl}phenyl)-N1,N1-dimethylbenzene-1,4-disulfonamide]
The AC50 of the first is higher: 8010 to 9990 nM for the first, no more than 2000 nM for the second.

`CC1(C)CC2(CCN(c3ccccc3NS(=O)(=O)c3ccc4c(c3)CCOC4)CC2)CO1` [Compound A-726, N-(2-{3,3-dimethyl-2-oxa-8-azaspiro[4.5]decan-8-yl}phenyl)-3,4-dihydro-1H-2-benzopyran-6-sulfonamide] and `COCC1(C)CCN(c2ccccc2NS(=O)(=O)c2ccc3c(c2)CCOC3)CC1` [Compound A-727, N-{2-[4-(methoxymethyl)-4-methylpiperidin-1-yl]phenyl}-3,4-dihydro-1H-2-benzopyran-6-sulfonamide] fall in the same range of AC50: 2010 to 8000 nM for the first, 2010 to 8000 nM for the second.

`CN(C)S(=O)(=O)c1ccc(S(=O)(=O)N(C)c2cc(F)ccc2N2CCC3(CC2)COC(C)(C)C3)cc1` [Compound A-728, N1-(2-{3,3-dimethyl-2-oxa-8-azaspiro[4.5]decan-8-yl}-5-fluorophenyl)-N1,N4,N4-trimethylbenzene-1,4-disulfonamide] and `CN(C)S(=O)(=O)c1ccc(S(=O)(=O)N(C)c2ccc(F)cc2N2CCC3(CC2)COC(C)(C)C3)cc1` [Compound A-729, N1-(2-{3,3-dimethyl-2-oxa-8-azaspiro[4.5]decan-8-yl}-4-fluorophenyl)-N1,N4,N4-trimethylbenzene-1,4-disulfonamide] fall in the same range of AC50: 2010 to 8000 nM for the first, 2010 to 8000 nM for the second.

`CN(C)S(=O)(=O)c1ccc(S(=O)(=O)Nc2ccccc2N2CCC(COCC(F)F)CC2)cc1` [Compound A-730, N4-(2-{4-[(2,2-difluoroethoxy)methyl]piperidin-1-yl}phenyl)-N1,N1-dimethylbenzene-1,4-disulfonamide] and `COCC1(C)CC2CCC(C1)N2c1ccccc1NS(=O)(=O)c1ccc(S(=O)(=O)N(C)C)cc1` (centres unmarked) [Compound A-734, N4-{2-[3-(methoxymethyl)-3-methyl-8-azabicyclo[3.2.1]octan-8-yl]phenyl}-N1,N1-dimethylbenzene-1,4-disulfonamide] cannot be ordered by AC50: no more than 2000 nM for the first, no more than 2000 nM for the second.

Compared with `COCC1(C)CCN(c2ccccc2NS(=O)(=O)c2ccc(S(C)(=O)=O)c(F)c2)CC1` [Compound A-731, 3-fluoro-4-methanesulfonyl-N-{2-[4-(methoxymethyl)-4-methylpiperidin-1-yl]phenyl}benzene-1-sulfonamide], `COCC1(C)CCN(c2ccccc2NS(=O)(=O)c2ccc(S(=O)(=O)N3CCC3)cc2)CC1` [Compound A-736, 4-(azetidine-1-sulfonyl)-N-{2-[4-(methoxymethyl)-4-methylpiperidin-1-yl]phenyl}benzene-1-sulfonamide] is lower in AC50: no less than 10000 nM for the first, no more than 2000 nM for the second.

First: O=S(=O)(Nc1ccccc1N1CCC(c2ccc(Cl)cc2F)CC1)c1ccc(C2(C(F)(F)F)N=N2)cc1 [Compound A-732, N-{2-[4-(4-chloro-2-fluorophenyl)piperidin-1-yl]phenyl}-4-[3-(trifluoromethyl)-3H-diazirin-3-yl]benzene-1-sulfonamide]
Second: COCC1(C)CCN(c2ccccc2NS(=O)(=O)c2ccc(C3(C(F)(F)F)N=N3)cc2)CC1 [Compound A-740, N-{2-[4-(methoxymethyl)-4-methylpiperidin-1-yl]phenyl}-4-[3-(trifluoromethyl)-3H-diazirin-3-yl]benzene-1-sulfonamide]
The AC50 of the first is lower: 2010 to 8000 nM for the first, 8010 to 9990 nM for the second.

Compared with `CN(C)S(=O)(=O)c1ccc(C(C)(C)Nc2ccccc2N2CCN(Cc3ccccc3)CC2)cc1` [Compound A-733, 4-(2-{[2-(4-benzylpiperazin-1-yl)phenyl]amino}propan-2-yl)-N,N-dimethylbenzene-1-sulfonamide], `COCC1(C)CCN(c2ccccc2NS(=O)(=O)c2ccc(S(=O)(=O)N(C)C)cc2)C(C)C1` (centres unmarked) [Compound A-745, N4-{2-[4-(methoxymethyl)-2,4-dimethylpiperidin-1-yl]phenyl}-N1,N1-dimethylbenzene-1,4-disulfonamide] is higher in AC50: 2010 to 8000 nM for the first, no less than 10000 nM for the second.

`CN(C)S(=O)(=O)c1ccc(S(=O)(=O)Nc2ccccc2N2CCC3(COC(C)(C)C3)CC2=O)cc1` (centres unmarked) [Compound A-735, N4-(2-{3,3-dimethyl-7-oxo-2-oxa-8-azaspiro[4.5]decan-8-yl}phenyl)-N1,N1-dimethylbenzene-1,4-disulfonamide] and `CC(c1ccc(F)cc1N1CCC2(CC1)COC(C)(C)C2)S(=O)(=O)c1ccc(S(=O)(=O)N(C)C)cc1` (centres unmarked) [Compound A-737, 4-[1-(2-{3,3-dimethyl-2-oxa-8-azaspiro[4.5]decan-8-yl}-4-fluorophenyl)ethanesulfonyl]-N,N-dimethylbenzene-1-sulfonamide] cannot be ordered by AC50: no less than 10000 nM for the first, no less than 10000 nM for the second.

`CC1(C)CC2(CCN(c3ccccc3NS(=O)(=O)CCc3ccccc3)CC2)CO1` [Compound A-743, N-(2-{3,3-dimethyl-2-oxa-8-azaspiro[4.5]decan-8-yl}phenyl)-2-phenylethane-1-sulfonamide] and `CC(c1ccccc1N1CCC2(CC1)COC(C)(C)C2)S(=O)(=O)Cc1ccccc1` (centres unmarked) [Compound A-751, 3,3-dimethyl-8-[2-(1-phenylmethanesulfonylethyl)phenyl]-2-oxa-8-azaspiro[4.5]decane] cannot be ordered by AC50: no less than 10000 nM for the first, no less than 10000 nM for the second.

`COCC1(C)CCN(c2ccccc2NS(=O)(=O)Cc2cccc(S(=O)(=O)COC)c2)CC1` [Compound A-744, 1-(3-methoxymethanesulfonylphenyl)-N-{2-[4-(methoxymethyl)-4-methylpiperidin-1-yl]phenyl}methanesulfonamide] and `COCC1(C)CCN(c2ccccc2NS(=O)(=O)Cc2ccc(S(=O)(=O)COC)cc2)CC1` [Compound A-747, 1-(4-methoxymethanesulfonylphenyl)-N-{2-[4-(methoxymethyl)-4-methylpiperidin-1-yl]phenyl}methanesulfonamide] cannot be ordered by AC50: no less than 10000 nM for the first, no less than 10000 nM for the second.

`COCC1(C)CCN(c2c(NS(=O)(=O)c3ccc(S(=O)(=O)N(C)C)cc3)ccc3c2cnn3C)CC1` [Compound A-746, N4-{4-[4-(methoxymethyl)-4-methylpiperidin-1-yl]-1-methyl-1H-indazol-5-yl}-N1,N1-dimethylbenzene-1,4-disulfonamide] and `CC(C1CCN(c2c(F)cccc2NS(=O)(=O)c2ccc(S(=O)(=O)N(C)C)cc2)CC1)N1C[C@@H](C)O[C@@H](C)C1` (stereo partly drawn) [Compound A-748, N4-[2-(4-{1-[(2R,6S)-2,6-dimethylmorpholin-4-yl]ethyl}piperidin-1-yl)-3-fluorophenyl]-N1,N1-dimethylbenzene-1,4-disulfonamide] cannot be ordered by AC50: no more than 2000 nM for the first, no more than 2000 nM for the second.

First: O=S(=O)(Nc1cccc(Cl)c1N1CCCCC1)c1ccc(C2(C(F)(F)F)N=N2)cc1 [Compound A-749, N-[3-chloro-2-(piperidin-1-yl)phenyl]-4-[3-(trifluoromethyl)-3H-diazirin-3-yl]benzene-1-sulfonamide]
Second: CC(c1cccc(F)c1N1CCC(CN2C[C@@H](C)O[C@@H](C)C2)CC1)S(=O)(=O)c1ccc(S(=O)(=O)N(C)C)cc1 (stereo partly drawn) [Compound A-750, 4-{1-[2-(4-{[(2R,6S)-2,6-dimethylmorpholin-4-yl]methyl}piperidin-1-yl)-3-fluorophenyl]ethanesulfonyl}-N,N-dimethylbenzene-1-sulfonamide]
The AC50 of the first is higher: 2010 to 8000 nM for the first, no more than 2000 nM for the second.
